Patent US20240425457A1, “COMPOSITIONS AND METHODS FOR SUPPRESSING AND/OR TREATING METABOLIC DISEASES AND/OR A CLINICAL CONDITION THEREOF” (CK Biotech Inc., priority 2018, published 2024)

Test system: HFD-fed mice
Assay: HFD-induced obesity/diabetes mice, 5-day oral courses at weeks 8/9 and 12
Format: in vivo
Conditions: HFD mice; p.o. daily 5 days at weeks 8/9 and 12; A3334, A3051, I3O 25, sitagliptin 50, metformin 100 mg/kg
From the text: Animals. The generation of Cxxc5^−/− mice has been described previously. Cxxc5 heterozygous mice were intercrossed for four generations to obtain littermate wild-type and Cxxc5^−/− mice and were maintained on a C57BL/6 background. Six-week-old Cxxc5^+/+ and Cxxc5^−/− mice were fed HFD for 8 weeks. Wild-type male C57BL/6 mice (KOATECH, Seoul, Korea) were fed HFD consisting of 60% calories from fat (Research Diet, D12492) for 8 weeks. To validate that the insulin resistance mouse model was successfully established, fasting glucose levels were assessed with a One Touch Ultra glucometer (LifeScan). Subsequently, each HFD-fed mouse with a fasting glucose level higher than 16.7 mmol/L was orally administered A3334 (25 mg kg^−1), sitagliptin (50 mg kg^−1), or metformin (100 mg kg^−1) each day for 5 days at weeks 8 and 12. After the removal of the drugs, mice were maintained for 3 weeks on the HFD. To monitor pancreas regeneration, six-week-old Cxxc5^+/+ and Cxxc5^−/− mice were fed an HFD as above. After dietary treatment for 4 weeks, the mice were intraperitoneally injected with STZ (50 mg/kg/d) for 1 week and the control group were injected with saline. After 2 weeks, Cxxc5^+/+ mice were administered A3334 (25 mg kg^−1) and sitagliptin (50 mg kg^−1) per day by oral gavage for 4 weeks. For GTT or ITT, mice were injected with D-glucose (1.5 g/kg body weight) after overnight starvation or human insulin (0.75 units/kg body weight) after 4 h starvation, respectively. Tail blood was drawn at 0, 15, 30, 60, 120, 180 min intervals and blood glucose level was measured with a One Touch Ultra glucometer. All mice were maintained under temperature-controlled and light-controlled (standard 12 h light/dark cycle) conditions and provided with food and water ad libitum. All protocols were reviewed and approved by the Institutional Review Board of Severance Hospital, Yonsei University College of Medicine (09-013).
Blood chemistry. Total blood of mice was collected by cardiac puncture after fasting. The blood was allowed to clot for 30 min and was then centrifuged for 10 min at 1,000×g to obtain supernatant to measure metabolic parameters. ELISA assay kits were used to assess serum insulin (Millipore), serum FFA (Cayman Chemical), serum adiponectin (ABclonal). The insulin function test was evaluated by HOMA-IR and was calculated as fasting plasma glucose (m mol/l)×fasting serum insulin (mU/l)/22.5. Serum chemistry variables included total cholesterol, HDL-cholesterol, glucose, TG, ALT, AST, ALP, Ca, and Mg concentration. The calibration of serum parameters was performed using the quality control card supplied with the FUJI DRI-CHEM slides whenever slides from a new lot were used. […]
Hematoxylin and eosin (H&E) staining. Dissected tissues were fixed in 4% neutral paraformaldehyde and embedded in paraffin. The paraffin sections were cut at a thickness of 4 μm and subjected to H&E staining. The adipocyte cell size was measured in 20 randomly chosen microscopic areas from 3 independent animals using a Nikon bright-field optical microscope (Nikon TE-2000U). The average adipocyte size was determined using Image J software. […]
Metabolic monitoring and body composition. Metabolic performance (energy intake and energy expenditure) was studied using a PHENOMASTER automated combined indirect calorimetry system (TSE system GmBH). The mice were first acclimated for 24 h in a metabolic chamber and were provided with food and water. They were then subsequently evaluated for 3 days to measure oxygen consumption (VO2), carbon dioxide production (VCO2), ambulatory counts, and respiratory exchange ratio. An LF50 body composition analyzer (Bruker) was used to determine body composition (lean body mass and total body fat) of the mice. The temperature for these studies remained at 22° C., with a 12 h light/dark cycle. Standard in-house software was used for energy expenditure.
Quantitative real-time polymerase chain reaction (PCR). […]

`CO/N=C1/C(=C2/C(=O)Nc3cc(Cl)c(Cl)cc32)Nc2ccccc21` [Compound A3051, 5,6-dichloroindirubin-3′-methoxime] was tested, and the fasting glucose level was “also reduced fasting glucose. However, effects of A3051 and I3O is similar to or little bit weaker than SITA”.
